The values below are quoted from earlier work in patent US7261907B2, “Compositions for the treatment of neurological disorders” (priority 2001, dated 2007).

The structures appear in SMILES notation. Structures can show the parent of a compound that is named as a salt.

The series deals with nicotine and cocaine addiction. To be noted: in vivo.

With `CC(NC(C)(C)C)C(=O)c1cccc(Cl)c1` (stereo not shown) [bupropion hydrochloride], the “effectiveness in treating nicotine and cocaine addiction” value is listed as “moderately effective”.
